The source of these data is patent US12559492B2, “BRAF degraders” (C4 Therapeutics, Inc., priority 2020, dated 2026).

As a reminder, the DC50 is the midpoint of the concentration-degradation curve. Low readings indicate degradation at low concentration, high ones degradation only at high concentration. A word on the Emax: it is the maximal effect, on the per cent scale that the assay sets.

This test addresses BRAF^V600E protein (Homo sapiens, UniProt P15056, V600E). Briefly: HiBiT cellular BRAF V600E degradation assay. Type of test: cell-based. As to conditions: 24 h incubation; for DC50: A375.10 cells (HiBiT tag knocked in at N-terminal of BRAF V600E), concentration at which 50% of total cellular BRAF V600E is degraded; for Emax: A375.10 cells, Emax = amount of residual protein remaining in the cell after compound treatment, read-out: HiBit 24 h Emax. Background: The HiBiT peptide binds its large partner to form an active luciferase.

Counter-ions that a name gives are not always drawn.

Chain of BRAF^V600E protein (P15056 whole entry V600E): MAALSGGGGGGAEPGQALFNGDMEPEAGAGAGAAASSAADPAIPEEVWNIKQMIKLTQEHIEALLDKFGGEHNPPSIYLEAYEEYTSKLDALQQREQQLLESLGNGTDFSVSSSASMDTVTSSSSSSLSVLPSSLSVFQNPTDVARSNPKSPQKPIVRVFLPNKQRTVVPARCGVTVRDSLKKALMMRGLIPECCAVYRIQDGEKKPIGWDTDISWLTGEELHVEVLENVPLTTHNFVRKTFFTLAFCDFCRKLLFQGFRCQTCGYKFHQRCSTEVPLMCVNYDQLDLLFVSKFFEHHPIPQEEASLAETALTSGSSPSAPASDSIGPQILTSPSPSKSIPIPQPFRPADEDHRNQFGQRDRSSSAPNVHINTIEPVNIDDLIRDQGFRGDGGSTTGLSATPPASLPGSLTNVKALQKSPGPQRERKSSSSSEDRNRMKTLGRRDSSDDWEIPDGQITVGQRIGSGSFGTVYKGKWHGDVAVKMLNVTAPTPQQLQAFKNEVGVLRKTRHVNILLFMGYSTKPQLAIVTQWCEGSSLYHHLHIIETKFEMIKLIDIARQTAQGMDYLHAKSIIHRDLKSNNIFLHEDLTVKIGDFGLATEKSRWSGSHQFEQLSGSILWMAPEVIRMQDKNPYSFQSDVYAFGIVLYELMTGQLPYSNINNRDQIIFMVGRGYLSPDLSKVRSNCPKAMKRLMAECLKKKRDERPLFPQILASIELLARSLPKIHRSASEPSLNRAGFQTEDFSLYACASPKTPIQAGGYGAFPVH

On to `CCN(C)S(=O)(=O)Nc1ccc(F)c(C(=O)c2c[nH]c3ncc(-c4cnc(N5CCC(NCC(=O)N6CCC(c7ccc(NC8CCC(=O)NC8=O)cc7)CC6)CC5)nc4)cc23)c1F` (centres unmarked) [Example A100, 5-[2-[4-[[2-[4-[4-[(2,6-Dioxopiperidin-3-yl)amino]phenyl]piperidin-1-yl]-2-oxoethyl]amino]piperidin-1-yl]pyrimidin-5-yl]-3-[3-[[ethyl(methyl)sulfamoyl]amino]-2,6-difluorobenzoyl]-1H-pyrrolo[2,3-b]pyridine;hydrochloride], for which it took 10 nM to reach half-maximal degradation (DC50) and the maximal response (Emax) came out at 11%.
As to `CCN(C)S(=O)(=O)Nc1ccc(F)c(C(=O)c2c[nH]c3ncc(-c4ccc(N5CCC(N(C)CC(=O)N6CCC(c7ccc(NC8CCC(=O)NC8=O)cn7)CC6)CC5)nc4)cc23)c1F` (centres unmarked) [Example A101, 5-[6-[4-[[2-[4-[5-[(2,6-Dioxopiperidin-3-yl)amino]pyridin-2-yl]piperidin-1-yl]-2-oxoethyl]-methylamino]piperidin-1-yl]pyridin-3-yl]-3-[3-[[ethyl(methyl)sulfamoyl]amino]-2,6-difluorobenzoyl]-1H-pyrrolo[2,3-b]pyridine; hydrochloride], half-maximal degradation (DC50) was put at 20 nM and the maximal response (Emax) stood at 19%.
For `CCN(C)S(=O)(=O)Nc1ccc(F)c(C(=O)c2c[nH]c3ncc(-c4cnc(N5CCC(NCC(=O)N6CCC(c7ccc(OC8CCC(=O)NC8=O)cc7)CC6)CC5)nc4)cc23)c1F` (centres unmarked) [Example A102, 5-[2-[4-[[2-[4-[4-(2,6-Dioxopiperidin-3-yl)oxyphenyl]piperidin-1-yl]-2-oxoethyl]amino]piperidin-1-yl]pyrimidin-5-yl]-3-[3-[[ethyl(methyl)sulfamoyl]amino]-2,6-difluorobenzoyl]-1H-pyrrolo[2,3-b]pyridine;formic acid], in that order: 33 nM and 12%.
Take `CCN(C)S(=O)(=O)Nc1ccc(F)c(C(=O)c2c[nH]c3ncc(-c4ccc(N5CCN(C(=O)CN6CCC(c7ccc(N8CCC(=O)NC8=O)cc7)CC6)CC5)nc4)cc23)c1F` [Example A104, 5-[6-[4-[2-[4-[4-(2,4-Dioxo-1,3-diazinan-1-yl)phenyl]piperidin-1-yl]acetyl]piperazin-1-yl]pyridin-3-yl]-3-[3-[[ethyl(methyl)sulfamoyl]amino]-2,6-difluorobenzoyl]-1H-pyrrolo[2,3-b]pyridine]: the 50% degradation concentration (DC50) turned out to be 10 nM and the maximal effect (Emax) was found to be 7%.
Regarding `O=C1CCC(Nc2ccc(CC(=O)N[C@H]3C[C@H](OC4CCN(c5ccc(-c6cnc7[nH]cc(C(=O)c8c(F)ccc(NS(=O)(=O)N9CCCC9)c8F)c7c6)cn5)CC4)C3)cc2)C(=O)N1` (some centres unmarked) [Example A105, N-[3-[1-[5-[3-[2,6-Difluoro-3-(pyrrolidin-1-ylsulfonylamino)benzoyl]-1H-pyrrolo[2,3-b]pyridin-5-yl]pyridin-2-yl]piperidin-4-yl]oxycyclobutyl]-2-[4-[(2,6-dioxopiperidin-3-yl)amino]phenyl]acetamide], half-maximal degradation (DC50) was put at 24 nM and the Emax was determined as 30%.
For `CC(C)S(=O)(=O)Nc1ccc(F)c(C(=O)c2c[nH]c3ncc(-c4ccc(N5CCN(C(=O)C6CC(N7CCC(c8ccc(NC9CCC(=O)NC9=O)cc8)CC7)C6)CC5)nc4)cc23)c1F` (centres unmarked) [Example A107, N-[3-[5-[6-[4-[3-[4-[4-[(2,6-Dioxopiperidin-3-yl)amino]phenyl]piperidin-1-yl]cyclobutanecarbonyl]piperazin-1-yl]pyridin-3-yl]-1H-pyrrolo[2,3-b]pyridine-3-carbonyl]-2,4-difluorophenyl]propane-2-sulfonamide], in that order: 12 nM and 12%.
`CC(C)S(=O)(=O)Nc1ccc(F)c(C(=O)c2c[nH]c3ncc(-c4ccc(N5CCN(C(=O)CN6CCC(c7ccc(N8CCC(=O)NC8=O)cc7)CC6)CC5)nc4)cc23)c1F` [Example A108, N-[3-[5-[6-[4-[2-[4-[4-(2,4-Dioxo-1,3-diazinan-1-yl)phenyl]piperidin-1-yl]acetyl]piperazin-1-yl]pyridin-3-yl]-1H-pyrrolo[2,3-b]pyridine-3-carbonyl]-2,4-difluorophenyl]propane-2-sulfonamide]: the DC50 came out at 14 nM and the Emax turned out to be 8%.
